Test results reported in patent publication US20090176817A1, “Method of Treatment of Diarrhea-Predominant Irritable Bowel Syndrome in a Subject” (priority 2005, published 2009).
Marks after values point to notes of the source that are not given here.

Assays:
[1] = Study S.241.1.110: ex vivo protein binding in serum, healthy and renally impaired; conditions: for Fraction unbound ratio All Renal Groups Combined:Healthy / Fraction unbound ratio Mild:Healthy / Fraction unbound ratio Moderate:Healthy / Fraction unbound ratio Severe:Healthy: ratio (90% CI)
Procedure: The ex vivo protein binding of cilansetron and its 4-hydroxy metabolites has been measured in serum samples collected in a multiple-dose study in healthy and renally impaired male and female subjects, aged 33-74 years. […] Healthy subjects were matched to renally-impaired subjects with respect to age, weight, gender, and smoking status. All subjects received oral cilansetron 2 mg TID on Days 1 to 5, and a single dose on the morning of Day 6.

[2] = Study S.241.1.109: interaction with ketoconazole 200 mg BID; format: in vivo, human; conditions: for AUC(0-τ) / Cmax / Tmax: steady state; for AUC(0-τ): AUC(0-8); for AUC(0-τ) / Cmax: arith. mean; for Tmax: median
Procedure: In an open-label, randomized, parallel-group study in three groups of 12 healthy, male and female subjects (aged 19 to 45 years), subjects received a 2 mg single dose of cilansetron on Day 1, 2 mg TID on Days 2-13, and a 2 mg single dose on Day 14. […] All morning doses of cilansetron and enzyme inhibitors were administered immediately after a standard breakfast. […] For each treatment group, log-transformed cilansetron AUC(0-τ) and Cmax values on Day 14 (cilansetron+enzyme inhibitor) were compared statistically versus values on Day 7 (cilansetron alone).

[3] = Study S.241.1.103: 14C mass balance, 8 mg oral and IV; format: in vivo, human
Procedure: The extent of absorption, distribution, metabolism, and elimination of cilansetron has been examined in an open-label, randomized, two period, crossover, mass balance study in 6 healthy male subjects who were treated with a single oral and single […] (30-minute infusion) of 8 mg ^14C-labeled (50 K μCi) cilansetron, with a washout of at least 2 weeks between periods. The ^14C-cilansetron was appropriately labeled in the aromatic ring and the label was therefore not metabolically labile. Serial blood samples, urine collection, and fecal collection were performed up to 144 hours following each dose. ^14C-radioactivity was measured in plasma, whole blood, urine, and feces, and unchanged cilansetron was measured in plasma and urine. Identification of metabolites of cilansetron was performed in plasma, urine, and feces. The results of this study are presented in Table 2.7.2.3.15 and the mean concentration-time plots for ^14C-radioactivity and unchanged cilansetron are shown in FIG. 24 and FIG. 25.
Cilansetron and metabolite profiles in plasma, urine, and feces were evaluated using HPLC separation followed by determination of radioactivity using scintillation counting. Cilansetron, (4R)-hydroxy cilansetron, and (4S)-hydroxy cilansetron accounted for 29.3%, 25.7%, and 13.8% of the total radioactivity, respectively, in plasma at 6 hours after oral administration, and for 46.2%, 20.0% and 14.1%3 of the total radioactivity in plasma at 3 hours after IV administration. The cumulative percent of cilansetron and 4-hydroxy metabolites excreted in urine over a 48-hour interval following dosing was 0.5% and 32.8% of the dose, respectively, following oral dosing, and 1.1% and 31.9% of the dose following IV dosing. In the case of fecal excretion over a 96-hour postdose, cilansetron, (4R)-hydroxy cilansetron, and (4S)-hydroxy cilansetron accounted for 1.2%, 6.9%, and 4.6% of the dose following oral administration, and 1.3%, 5.1%, and 11.3% of the dose following IV administration.

[4] = Study S.241.1.110: pharmacokinetics in renal impairment, 2 mg TID; conditions: for AUC(0-τ) / Cmax / T½ / Tmax / Cmin: cilansetron 2 mg TID; for AUC(0-τ) / Cmax / T½ / Cmin: mean (%CV); for Tmax: median; for Cmin: Day 6 morning predose value
Procedure: The effect of renal impairment on the pharmacokinetics of cilansetron was evaluated in a study excluding subjects with end-stage renal disease, and utilizing a single-center, open-label, multiple-dose, parallel group study in 13 male and 9 female subjects, aged 33-74 years. […] Healthy subjects were matched to renally-impaired subjects with respect to age, weight, gender, and smoking status. All subjects received oral cilansetron 2 mg TID on Days 1 to 5, and a single dose on the morning of Day 6. Blood samples for measurement of plasma pharmacokinetics of cilansetron and its 4-hydroxy metabolites were collected up to 24 hours following dosing on Day 6, and log-transformed pharmacokinetic parameters for these analytes were statistically compared between study groups. Serum concentrations of unbound cilansetron and its 4-hydroxy metabolites were also measured prior to dosing and at 1 and 1.5 hours postdose on Day 6.

[5] = Cilansetron 2 mg TID + Ketoconazole 200 mg twice daily
[6] = Cilansetron 2 mg TID alone (ketoconazole group)
[7] = cilansetron + ketoconazole / cilansetron alone, ANOVA of log-transformed data
[8] = moderate renal impairment, Day 6

Cc1nccn1CC1CCc2c(c3cccc4c3n2CC[C@H]4O)C1=O (stereo partly drawn) [(4R)-hydroxy cilansetron]
Fraction unbound ratio All Renal Groups Combined:Healthy ([1]; 1 h): 121 (109, 134)^b % | Fraction unbound ratio Mild:Healthy ([1]; 1 h): 106 (93, 121) % | Fraction unbound ratio Moderate:Healthy ([1]; 1 h): 137 (119, 157)^b % | Fraction unbound ratio Severe:Healthy ([1]; 1 h): 121 (105, 140)^b % | Fraction Unbound in Serum ([1]; Day 6 1 h, Healthy): 24.7 (7) % | Fraction Unbound in Serum ([1]; Day 6 1 h, Mild): 26.4 (14) % | Fraction Unbound in Serum ([1]; Day 6 1 h, Moderate): 34.3 (22) % | Fraction Unbound in Serum ([1]; Day 6 1 h, Severe): 30.2 (18) % | Fraction Unbound in Serum ([1]; Day 6 […], Healthy): 27.6 (15) % | Fraction Unbound in Serum ([1]; Day 6 […], Mild): 26.2 (17) % | Fraction Unbound in Serum ([1]; Day 6 […], Moderate): 28.5 (13) % | Fraction Unbound in Serum ([1]; Day 6 […], Severe): 23.7 (11) % | Fraction Unbound in Serum ([1]; Day 6 predose, Healthy): 25.3 (11) % | Fraction Unbound in Serum ([1]; Day 6 predose, Mild): 29.6 (30) % | Fraction Unbound in Serum ([1]; Day 6 predose, Moderate): 31.0 (21) % | Fraction Unbound in Serum ([1]; Day 6 predose, Severe): 32.4 (17) % | Fraction unbound ratio All Renal Groups Combined:Healthy ([1]; […]): 95 (85, 105) % | Fraction unbound ratio Mild:Healthy ([1]; […]): 95 (83, 109) % | Fraction unbound ratio Moderate:Healthy ([1]; […]): 104 (90, 120) % | Fraction unbound ratio Severe:Healthy ([1]; […]): 86 (74, 100) % | Protein bound on average ([1]; healthy subjects): 72.4-75.3% | Fraction unbound ratio All Renal Groups Combined:Healthy ([1]; predose): 121 (105, 139)^b % | Fraction unbound ratio Mild:Healthy ([1]; predose): 114 (96, 137) % | Fraction unbound ratio Moderate:Healthy ([1]; predose): 122 (100, 147) % | Fraction unbound ratio Severe:Healthy ([1]; predose): 128 (105, 155)^b % | Plasma protein bound ([1]; therapeutic concentration range): 72-75% | AUC(0-τ) [2, 5]: 20.8 ng·h/mL | Cmax [2, 5]: 5.11 ng/mL | Tmax [2, 5]: 1.50 h | AUC(0-τ) [2, 6]: 12.2 ng·h/mL | Cmax [2, 6]: 2.48 ng/mL | Tmax [2, 6]: 2.00 h | AUC(0-τ) Ratio (Treatment B/A) [2, 7]: 176% | Cmax Ratio (Treatment B/A) [2, 7]: 209% | Share of total radioactivity in plasma ([3]; 3 hours after IV administration): 20.0% | Share of total radioactivity in plasma ([3]; 6 hours after oral administration): 25.7% | Fecal excretion over 96 hours ([3]; IV): 5.1 % of the dose | Fecal excretion over 96 hours ([3]; oral): 6.9 % of the dose | Plasma Conc. ([4]; Day 6 1 h, Healthy): 3.90 (37) ng/mL | Plasma Conc. ([4]; Day 6 1 h, Mild): 4.86 (39) ng/mL | Plasma Conc. ([4]; Day 6 1 h, Moderate): 3.94 (32) ng/mL | Plasma Conc. ([4]; Day 6 1 h, Severe): 7.67 (38) ng/mL | AUC(0-τ) ratio Mild/Healthy ([4]; Day 6, geometric LS mean ratio (90% CI)): 118 (90, 153) % | AUC(0-τ) ratio Moderate/Healthy ([4]; Day 6, ratio (90% CI)): 137 (104, 182) % | AUC(0-τ) ratio Renal Combined/Healthy ([4]; Day 6, ratio (90% CI)): 166 (136, 204)* % | AUC(0-τ) ratio Severe/Healthy ([4]; Day 6, ratio (90% CI)): 284 (215, 377)* % | Cmax ratio Mild/Healthy ([4]; Day 6, ratio (90% CI)): 134 (101, 177) % | Cmax ratio Moderate/Healthy ([4]; Day 6, ratio (90% CI)): 137 (102, 185) % | Cmax ratio Renal Combined/Healthy ([4]; Day 6, ratio (90% CI)): 158 (127, 196)* % | Cmax ratio Severe/Healthy ([4]; Day 6, ratio (90% CI)): 215 (159, 290)* % | T½ ratio Mild/Healthy ([4]; Day 6, ratio (90% CI)): 109 (84, 142) % | T½ ratio Moderate/Healthy ([4]; Day 6, ratio (90% CI)): 129 (97, 171) % | T½ ratio Renal Combined/Healthy ([4]; Day 6, ratio (90% CI)): 140 (114, 172)* % | T½ ratio Severe/Healthy ([4]; Day 6, ratio (90% CI)): 195 (147, 259)* % | Plasma Conc. ([4]; Day 6 […], Healthy): 3.79 (20) ng/mL | Plasma Conc. ([4]; Day 6 […], Mild): 3.86 (20) ng/mL | Plasma Conc. ([4]; Day 6 […], Moderate): 4.75 (28) ng/mL | Plasma Conc. ([4]; Day 6 […], Severe): 7.87 (38) ng/mL | AUC(0-τ) ([4]; healthy subjects, Day 6): 18.7 (21) ng · h/mL | Cmax ([4]; healthy subjects, Day 6): 4.30 (33) ng/mL | T½ ([4]; healthy subjects, Day 6): 7.05 (21) h | Tmax ([4]; healthy subjects, Day 6): 1.25 h | Cmin ([4]; healthy subjects): 1.56 (24) ng/mL | Exposure increase with severe renal impairment ([4]; in vivo): 2-3 fold | Mean AUC(0-τ) increase vs healthy ([4]; mild impairment): 18% | Mean Cmax increase vs healthy ([4]; mild impairment): 34% | AUC(0-τ) ([4]; mild renal impairment, Day 6): 21.6 (9) ng · h/mL | Cmax ([4]; mild renal impairment, Day 6): 5.66 (25) ng/mL | T½ ([4]; mild renal impairment, Day 6): 7.93 (38) h | Tmax ([4]; mild renal impairment, Day 6): 1.25 h | Cmin ([4]; mild renal impairment): 1.68 (24) ng/mL | Mean AUC(0-τ) increase vs healthy ([4]; moderate impairment): 37% | Mean Cmax increase vs healthy ([4]; moderate impairment): 37% | AUC(0-τ) [4, 8]: 26.3 (34) ng · h/mL | Cmax [4, 8]: 5.83 (28) ng/mL | T½ [4, 8]: 9.32 (36) h | Tmax [4, 8]: 1.25 h | Cmin ([4]; moderate renal impairment): 2.06 (40) ng/mL | Mean AUC(0-τ) increase vs healthy ([4]; severe impairment): 184% | Mean Cmax increase vs healthy ([4]; severe impairment): 115% | AUC(0-τ) ([4]; severe renal impairment, Day 6): 55.8 (45) ng · h/mL | Cmax ([4]; severe renal impairment, Day 6): 9.35 (39) ng/mL | T½ ([4]; severe renal impairment, Day 6): 13.9 (30) h | Tmax ([4]; severe renal impairment, Day 6): 1.50 h | Cmin ([4]; severe renal impairment): 4.36 (36) ng/mL

Cc1nccn1C[C@H]1CCc2c(c3cccc4c3n2CCC4)C1=O [Cilansetron, (R)-(−)-4,5,6,8,9,10-hexahydro-10-[(2-methyl-1H-imidazol-1-yl)methyl]-11H-pyrido-[3,2,1-jk]-carbazol-11-one]
AUC(0-last) ([3]; human, in vivo, iv): 999 (223) ng[-equiv] · h/mL | AUC(0-inf) ([3]; human, in vivo, iv, 8 mg): 1217 (299) ng[-equiv] · h/mL | AUC(0-last) ([3]; human, in vivo, po): 908 (244) ng[-equiv] · h/mL | CL/F (blood) ([3]; human, in vivo, po): 2857 (1912) mL/min | Cmax ([3]; human, in vivo, po): 171 (63) ng[-equiv]/mL | AUC(0-inf) ([3]; human, in vivo, po, 8 mg): 1047 (248) ng[-equiv] · h/mL | Absorption calculated from percentage renal recovery ([3]; male, human, in vivo): 99.8% | Share of urinary excretion within 24 hours of dosing ([3]; male, human, in vivo): ≥ 87% | Dose recovered in urine as unchanged drug ([3]; male, human, in vivo, 144 h): < 1% | AUC(0-inf) ([3]; male, human, in vivo, iv): 209 ng·h/mL | AUC(0-t) ([3]; male, human, in vivo, iv): 200 ng·h/mL | CL (plasma) ([3]; male, human, in vivo, iv): 118 (42) mL/min | Cumulative percent excreted in urine over 48 hours ([3]; male, human, in vivo, iv): 1.1 % of the dose | Fecal excretion over 96 hours ([3]; male, human, in vivo, iv): 1.3 % of the dose | Radioactivity in blood cells ([3]; male, human, in vivo, iv): 9.5 (4.1) % | Recovery, Fecal ([3]; male, human, in vivo, iv): 28.9 (1.8) % | Recovery, Total ([3]; male, human, in vivo, iv): 92.3 (1.5) % | T½ ([3]; male, human, in vivo, iv): 107 h | Vd ([3]; male, human, in vivo, iv): 85.3 L | Vz ([3]; male, human, in vivo, iv): 1001 (162) L | half-life ([3]; male, human, in vivo, iv): 1.51 h | Share of total radioactivity in plasma ([3]; male, human, in vivo, iv, 3 h): 46.2% | clearance ([3]; male, human, in vivo, iv, CL (blood)): 1040 mL/min | clearance ([3]; male, human, in vivo, iv, CL (plasma)): 655 mL/min | AUC(0-inf) ([3]; male, human, in vivo, po): 98.2 ng·h/mL | AUC(0-t) ([3]; male, human, in vivo, po): 91.4 ng·h/mL | Absorption of orally administered cilansetron ([3]; male, human, in vivo, po): higher than 90% | Cmax ([3]; male, human, in vivo, po): 52.9 ng/mL | Cumulative percent excreted in urine over 48 hours ([3]; male, human, in vivo, po): 0.5 % of the dose | Fecal excretion over 96 hours ([3]; male, human, in vivo, po): 1.2 % of the dose | Radioactivity in blood cells ([3]; male, human, in vivo, po): 10.5 (5.7) % | Recovery, Fecal ([3]; male, human, in vivo, po): 27.5 (3.2) % | Recovery, Total ([3]; male, human, in vivo, po): 90.8 (2.2) % | Tmax ([3]; male, human, in vivo, po): 0.51 h | Vd/F ([3]; male, human, in vivo, po): 155 L | Vz/F ([3]; male, human, in vivo, po): 836 (275) L | half-life ([3]; male, human, in vivo, po): 1.23 h | Share of total radioactivity in plasma ([3]; male, human, in vivo, po, 6 h): 29.3% | bioavailability ([3]; male, human, in vivo, po, Absolute Bioavailability): 49%
